According to ChEMBL document CHEMBL5390264, “Exploring Fatty Acid Mimetics as NR4A Ligands” (J Med Chem, 2023):
Active and inactive are the calls of the source. No cut-off for these calls is given here.

Columns and labels:
Format in all cases: cell-based
[1] = Selectivity ratio for agonist activity at RXRalpha LBD (unknown origin) transiently transfected in HEK293T cells to agonist activity at human Nurr1 LBD transiently transfected in HEK293T cells
[2] = Selectivity ratio for agonist activity at PPARalpha LBD (unknown origin) transiently transfected in HEK293T cells to agonist activity at human NOR-1 LBD transiently transfected in HEK293T cells
[3] = target: T1, Peroxisome proliferator-activated receptor alpha (Homo sapiens) (UniProt Q07869); assay: Agonist activity at PPARalpha LBD (unknown origin) transiently transfected in HEK293T cells at 1 uM incubated for 16 hrs by Gal4-hybrid reporter gene based Dual-glo luciferase assay
T1 sequence (whole entry): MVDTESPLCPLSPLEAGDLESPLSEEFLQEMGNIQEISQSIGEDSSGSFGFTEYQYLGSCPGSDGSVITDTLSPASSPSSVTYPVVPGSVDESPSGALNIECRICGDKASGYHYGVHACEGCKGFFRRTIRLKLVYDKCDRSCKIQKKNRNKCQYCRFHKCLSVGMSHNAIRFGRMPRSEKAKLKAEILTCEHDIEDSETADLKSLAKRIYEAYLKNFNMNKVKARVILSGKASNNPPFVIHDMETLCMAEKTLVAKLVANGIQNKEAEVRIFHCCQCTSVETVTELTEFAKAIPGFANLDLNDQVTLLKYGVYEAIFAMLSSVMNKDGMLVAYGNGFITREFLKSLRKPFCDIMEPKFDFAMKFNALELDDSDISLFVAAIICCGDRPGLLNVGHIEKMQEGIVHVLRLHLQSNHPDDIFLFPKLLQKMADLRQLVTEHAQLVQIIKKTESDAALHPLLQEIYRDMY

[4] = Selectivity ratio for agonist activity at RARalpha LBD (unknown origin) transiently transfected in HEK293T cells to agonist activity at human NOR-1 LBD transiently transfected in HEK293T cells
[5] = Selectivity ratio for agonist activity at RXRalpha LBD (unknown origin) transiently transfected in HEK293T cells to agonist activity at human Nur77 LBD transiently transfected in HEK293T cells
[6] = Selectivity ratio for agonist activity at PPARdelta LBD (unknown origin) transiently transfected in HEK293T cells to agonist activity at human Nurr1 LBD transiently transfected in HEK293T cells
[7] = target: T2, Retinoic acid receptor RXR-alpha (Homo sapiens) (UniProt P19793); assay: Agonist activity at human full length RXRalpha transiently transfected in HEK293T cells at 1 uM incubated for 16 hrs by Gal4-hybrid reporter gene based Dual-glo luciferase assay
T2 sequence (whole entry): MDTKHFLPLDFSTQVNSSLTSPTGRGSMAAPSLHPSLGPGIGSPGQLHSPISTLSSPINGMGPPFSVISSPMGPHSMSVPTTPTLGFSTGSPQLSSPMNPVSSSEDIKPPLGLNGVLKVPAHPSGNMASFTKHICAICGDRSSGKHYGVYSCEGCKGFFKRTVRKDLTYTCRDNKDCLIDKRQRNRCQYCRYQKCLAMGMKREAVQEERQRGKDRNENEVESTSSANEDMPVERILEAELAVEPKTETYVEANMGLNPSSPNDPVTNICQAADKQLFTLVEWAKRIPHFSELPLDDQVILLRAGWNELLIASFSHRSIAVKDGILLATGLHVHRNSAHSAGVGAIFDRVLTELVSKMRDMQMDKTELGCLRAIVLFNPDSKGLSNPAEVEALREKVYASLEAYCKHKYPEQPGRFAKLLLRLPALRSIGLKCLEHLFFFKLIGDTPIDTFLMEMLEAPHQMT

[8] = Selectivity ratio for agonist activity at VDR LBD (unknown origin) transiently transfected in HEK293T cells to agonist activity at human Nur77 LBD transiently transfected in HEK293T cells
[9] = Selectivity ratio for agonist activity at PPARgamma LBD (unknown origin) transiently transfected in HEK293T cells to agonist activity at human Nurr1 LBD transiently transfected in HEK293T cells
[10] = Selectivity ratio for agonist activity at FXR LBD (unknown origin) transiently transfected in HEK293T cells to agonist activity at human NOR-1 LBD transiently transfected in HEK293T cells
[11] = Selectivity ratio for agonist activity at RXRalpha LBD (unknown origin) transiently transfected in HEK293T cells to agonist activity at human NOR-1 LBD transiently transfected in HEK293T cells
[12] = Selectivity ratio for agonist activity at RARalpha LBD (unknown origin) transiently transfected in HEK293T cells to agonist activity at human Nur77 LBD transiently transfected in HEK293T cells
[13] = Selectivity ratio for agonist activity at VDR LBD (unknown origin) transiently transfected in HEK293T cells to agonist activity at human NOR-1 LBD transiently transfected in HEK293T cells
[14] = target: T3, Bile acid receptor (Homo sapiens) (UniProt Q96RI1); assay: Agonist activity at FXR LBD (unknown origin) transiently transfected in HEK293T cells at 1 uM incubated for 16 hrs by Gal4-hybrid reporter gene based Dual-glo luciferase assay
T3 sequence (whole entry): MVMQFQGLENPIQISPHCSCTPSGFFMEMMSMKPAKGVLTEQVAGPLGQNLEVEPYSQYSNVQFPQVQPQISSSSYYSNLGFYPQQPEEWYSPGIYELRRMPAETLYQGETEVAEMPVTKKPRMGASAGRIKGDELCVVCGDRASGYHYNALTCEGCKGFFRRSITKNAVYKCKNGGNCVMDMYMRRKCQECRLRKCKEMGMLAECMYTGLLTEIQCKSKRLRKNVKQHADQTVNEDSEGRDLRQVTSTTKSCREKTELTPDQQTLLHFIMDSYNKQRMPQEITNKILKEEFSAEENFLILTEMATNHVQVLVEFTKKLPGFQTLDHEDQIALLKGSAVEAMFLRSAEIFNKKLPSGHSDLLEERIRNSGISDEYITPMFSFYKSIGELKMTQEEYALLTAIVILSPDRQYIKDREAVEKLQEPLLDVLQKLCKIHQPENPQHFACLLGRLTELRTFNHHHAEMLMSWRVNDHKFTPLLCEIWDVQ

Activity [3]: inactive
Activity [7]: inactive
Activity [14]: inactive
SMILES: CC(C)(C)c1ccc(COc2cccc(C(=O)O)c2)cc1
Selectivity ratio [1]: > 30
Selectivity ratio [2]: > 30
Selectivity ratio [4]: > 30
Selectivity ratio [5]: > 30
Selectivity ratio [6]: > 30
Selectivity ratio [8]: > 30
Selectivity ratio [9]: > 30
Selectivity ratio [10]: > 30
Selectivity ratio [11]: > 30
Selectivity ratio [12]: > 30
Selectivity ratio [13]: > 30
